The results in this text go back to ChEMBL document CHEMBL1155558, “New cyclic peptide and bisindolyl benzenoid metabolites from the sclerotia of Aspergillus sclerotiorum” (2000).

This experiment concerns Spodoptera frugiperda. Put plainly: Activity against Spodoptera frugiperda assessed as reduction in feeding rate at 50 ug/cotton leaf disk. The format is functional. The arrangement: scale not given: the % may be the effect or the level left.

For `CN1C(=O)[C@H](CCC(N)=O)NC(=O)CNC(=O)[C@H](Cc2ccccc2)N(C)C(=O)[C@H](Cc2ccccc2)NC(=O)CNC(=O)[C@@H]1Cc1ccccc1` [SCLERAMIDE], the Activity was 27%.
